Laboratory results published in patent US6956046B2, “4-hydroxypiperidine derivatives having analgesic activity” (priority 2001, dated 2005).
Each block holds one molecule with its values, some of them ahead of it.

Columns and labels:
[1] = test system: formalin-induced nociceptive response in rats; test: Inhibitory effect on the formalin-induced nociceptive response in rats; format: in vivo, rat; details: oral, 30 minutes before subcutaneous formalin; probit method
Method: [Inhibitory Effect on the Formalin-induced Nociceptive Response in Rats]
The experiment was undertaken by the method disclosed by Doak et al., Eur. J. Pharmacol. 281:311, 1995. Specifically, 50 μL of 0.5% formalin solution was subcutaneously injected into the left foot pad of the rat, and then each behavior of the rat consisting of the licking or biting of the pad immediately following the injection was checked with a stopwatch for its duration, and its cumulative duration was recorded at five minute intervals. The nociceptive response observed in 10 minutes after the injection was termed a first-phase response while the response observed between 10 minutes and 45 minutes after the injection was termed a second-phase response. The test compound was orally applied to the rat 30 minutes before the subcutaneous injection of formalin. Then, the inhibitory effect of the test compound on the nociceptive response induced by the formalin injection was calculated according to the following formula and 30% inhibition dose (ED30 value) was determined by the probit method. To mention, for illustration, ED30 value of carbamazepine was 27 mg/kg. Percent inhibition (%)=[(PRcontrol−PRtest)/PRcontrol]×100 wherein PRtest is the response time (sec) of the test group which received formalin and the test compound, while PRcontol is the response time of the control group which. received formalin and vehicle.

[2] = test system: rat model made by loosely constricting the sciatic nerve; test: Efficacy in the rat model made by loosely constricting the sciatic nerve (von Frey response threshold); format: in vivo; details: for Mean threshold (g) Injured foot (left) / Mean threshold (g) Normal foot (right): one hour after dosing
Method: [Efficacy in the Rat Model Made by Loosely Constricting the Sciatic Nerve]
Preparation of the rat pain model based on the constriction of the sciatic nerve was performed by the method introduced by Bennett et al. (“Pain,” 33:87, 1988). Specifically, the rat was anesthetized with i.p. injection of pentobarbital sodium at 40 mg/kg; the overlying skin was cut open; and the left biceps femoris muscle was bluntly separated. The sciatic nerve was isolated from surrounding tissues; it was gently constricted at four sites about 1 mm apart from each other by the use of surgical gut sutures (4-0 or 3-0 chromic gut); the operated part was closed; and the rat was returned to its cage for further feeding. For the rat belonging to the sham-surgery group, the same operation was performed except that the sciatic nerve was left untouched. Two weeks after the surgery, the response threshold to a mechanical stimulus consisting of touch with von Frey filaments was determined. The test proceeded as follows: the test compound was orally applied to the rat having the sciatic nerve constricted; one hour later, von Frey hairs were applied against the foot pad (spots ranging from heel to the mid-point of foot) one after another in an ascending order of their stiffness; if the rat raises its foot when a certain von Frey hair was applied, the stimulus intensity of that hair was taken as the response threshold (maximum stimulus intensity being 28.84 g).

[3] = test system: Wistar Hannover female rats; test: Toxicological study, oral, rats; format: in vivo, rat
Method: The compounds of Example 8 or Example 12 were orally given to 6 week-old Wistar Hannover female rats at 40 mg/kg/day.
The compound of Example 29 was orally given to 6 week-old Wistar Hannover female rats at 400 mg/Kg/day once daily for 14 days, respectively.

rhesus male monkeys = test: Toxicological study, oral, 14 days, monkeys; format: in vivo, rhesus monkey; details: for survival: until 24 hours after final administration
Method: The compound Example 12 or Example 29 were orally given to 3 year-old rhesus male monkeys at 20 mg/Kg/day and 40 mg/Kg/day, respectively, once daily for 14 days.

[4] = Metabolic stability in dog liver microsomes and hepatocytes; format: in vitro ADME
[5] = Metabolic stability in monkey liver microsomes and hepatocytes; format: in vitro ADME
rhesus male monkey = test: Holter ECG test; format: in vivo; details: oral 80 mg/Kg, 4 year-old rhesus male monkey
Method: In Holter ECG test, the compound of Example 12 or Example 29 were orally given to 4 year-old rhesus male monkey at 80 mg/Kg. There was no effect in electrocardiogram.

[6] = Pharmacokinetics: plasma concentration after a single oral administration; format: in vivo; details: male rhesus monkey
Text: The compound of Example 12 or Example 29 were studied about time-course profile of plasma concentration after a single oral administration to 3 or 4 year-old male rhesus monkey. […] Therefore, it can be considered to cause unlikely the drug-drug interaction by the compounds. […] Therefore, it can be considered that the compounds are unlikely metabolized by first pass effect.

[7] = Metabolic stability in human liver microsomes and hepatocytes; format: in vitro ADME
[8] = test system: human-drug metabolizing enzymes; test: Inhibitory effect on human-drug metabolizing enzymes; format: in vitro ADME
[9] = Metabolic stability in rat liver microsomes and hepatocytes; format: in vitro ADME
[10] = oral 40 mg/kg/day, 6 week-old female rats
[11] = oral 40 mg/kg/day, 6 week-old female rats, examination period
[12] = oral 20 mg/Kg/day once daily for 14 days
[13] = oral 40 mg/Kg/day once daily for 14 days
[14] = oral 400 mg/Kg/day once daily for 14 days

melting point: 125.5 to 129.7 °C
SMILES: CN(CC1(O)CCN(CCc2ccc(C#N)cc2)CC1)c1cccc(C(=O)O)c1.Cl

melting point: 195.3 to 200.6 °C
SMILES: CN(CC1(O)CCN(CCc2ccc(C#N)cc2)CC1)c1ccccc1C(=O)O.Cl

melting point: 169.8 to 173.6 °C
SMILES: CN(CC1(O)CCN(CCc2ccc(C#N)cc2)CC1)c1ccc([N+](=O)[O-])cc1.Cl

melting point: 242.5 to 245 °C
SMILES: CN(CC1(O)CCN(CCc2ccccc2)CC1)c1ccc(C(=O)O)cc1.Cl

melting point: 166.8 to 176.4 °C
SMILES: CN(CC1(O)CCN(CCc2cccc(C#N)c2)CC1)c1ccc(C(=O)O)cc1.Cl

melting point: 197.2 to 222.4 °C
SMILES: CN(CC1(O)CCN(CCc2ccccc2C#N)CC1)c1ccc(C(=O)O)cc1.Cl

melting point: 181.9 to 189.1 °C
SMILES: CN(CC1(O)CCN(CCc2ccc(C#N)cc2)CC1)c1cccc(C(=O)O)c1 [Example 15, 3-({1-[2-(4-cyanophenyl)ethyl]-4-hydroxypiperidin-4-ylmethyl}methylamino)benzoic acid]

melting point: 98.3 to 108.1 °C
SMILES: CN(CC1(O)CCN(CCc2ccc(C#N)cc2)CC1)c1ccc([N+](=O)[O-])cc1 [Example 16, 4-[2-(4-hydroxy-4-{[methyl(4-nitrophenyl)amino]methyl}piperidin-1-yl)ethyl]benzonitrile]

melting point: 106.5 to 116.2 °C
SMILES: CN(CC1(O)CCN(CCc2ccc(C#N)cc2)CC1)c1ccccc1C(=O)O [Example 19, 2-({1-[2-(4-cyanophenyl)ethyl]-4-hydroxypiperidin-4-ylmethyl}methylamino)benzoic acid]

Continued, molecule first:

SMILES: Cl.N#Cc1ccc(CCN2CCC(O)(COc3ccc(C(N)=O)cc3)CC2)cc1
melting point: 251 to 254.9 °C

SMILES: Cl.N#Cc1ccc(CCN2CCC(O)(CNc3ccc(C(=O)O)cc3)CC2)cc1
melting point: 247.7 to 253.2 °C

SMILES: CN(CC1(O)CCN(CCc2ccc(S(C)(=O)=O)cc2)CC1)c1ccc(C(=O)O)cc1.Cl
melting point: 246.5 to 249.6 °C

SMILES: Cl.N#Cc1ccc(CCN2CCC(O)(COc3ccc(O)cc3)CC2)cc1
melting point: 253 to 255.6 °C

SMILES: COC(=O)c1ccc(OCC2(O)CCN(CCc3ccc(C#N)cc3)CC2)cc1.Cl
melting point: 183.7 to 189.7 °C

SMILES: NC(=O)N1c2ccccc2C=Cc2ccccc21 [Carbamazepine, carbamazepine, reference compound]
ED30 value (30% inhibition dose) [1]: 27 mg/kg | Mean threshold (g) Injured foot (left) ([2]; dose 30 mg/kg oral): 9.01 g | Mean threshold (g) Normal foot (right) ([2]; dose 30 mg/kg oral): 20.53 g | threshold of the injured paw to a mechanical stimulus (in words) ([2]; injured side): significantly raised | response threshold of the normal paw (in words) ([2]; normal side): significantly raised

SMILES: N#Cc1ccc(CCN2CCC(O)(COc3ccc(C(N)=O)cc3)CC2)cc1 [Example 5, 4-(4-carbamoylphenoxymethyl)-1-[2-(4-cyanophenyl)ethyl]-piperidin-4-ol]
melting point: 192.1 to 193.2 °C

SMILES: N#Cc1ccc(CCN2CCC(O)(COc3ccc([N+](=O)[O-])cc3)CC2)cc1 [Example 6, 1-[2-(4-cyanophenyl)ethyl)-4-(4-nitrophenoxymethyl)piperidin-4-ol]
melting point: 134.7 to 156.7 °C

SMILES: Cl.N#Cc1ccc(CCN2CCC(O)(COc3ccc(CO)cc3)CC2)cc1 [Example 8, 1-[2-(4-cyanophenyl)ethyl]-4-(4-hydroxymethylphenoxymethyl)piperidin-4-ol hydrochloride]
general appearance [3, 10]: no abnormalities | survival [3, 11]: all the rats survived

SMILES: Cl.N#Cc1ccc(CCN2CCC(O)(COc3ccc([N+](=O)[O-])cc3)CC2)cc1 [Example 11, 1-[2-(4-cyanophenyl)ethyl]-4-(4-nitrophenoxymethyl)piperidin-4-ol hydrochloride]
ED30 value (30% inhibition dose) [1]: 0.047 mg/kg | melting point: 219.6 to 221.3 °C

SMILES: Cl.N#Cc1ccc(CCN2CCC(O)(COc3ccc(C(=O)O)cc3)CC2)cc1 [Example 12, 4-{1-[2-(4-cyanophenyl)ethyl]-4-hydroxypiperidin-4-ylmethoxy}benzoic acid hydrochloride]
general appearances, body weight gains and food consumptions (rhesus male monkeys; [12]): no abnormalities | hematology, biochemistry, organ weight, and histopathology (rhesus male monkeys; [12]): No abnormal findings | survival (rhesus male monkeys; [12]): All the monkeys survived | ED30 value (30% inhibition dose) [1]: 2.0 mg/kg | metabolic stability [4]: metabolically stable | general appearance [3, 10]: no abnormalities | survival [3, 11]: all the rats survived | Mean threshold (g) Injured foot (left) ([2]; dose 1 mg/kg oral): 7.96 g | Mean threshold (g) Normal foot (right) ([2]; dose 1 mg/kg oral): 14.29 g | Mean threshold (g) Injured foot (left) ([2]; dose 3 mg/kg oral): 8.92 g | Mean threshold (g) Normal foot (right) ([2]; dose 3 mg/kg oral): 14.71 g | Mean threshold (g) Injured foot (left) ([2]; dose 10 mg/kg oral): 10.96 g | Mean threshold (g) Normal foot (right) ([2]; dose 10 mg/kg oral): 14.29 g | metabolic stability [5]: metabolically stable | effect in electrocardiogram (rhesus male monkey): no effect | bioavailability [6]: very good bioavailability | maximum plasma concentration (Cmax) and area under the plasma concentration-time curve (AUC) versus dose [6]: increased almostly in proportion to the doses | metabolic stability [7]: metabolically stable | inhibitory effect on human-drug metabolizing enzymes [8]: no serious inhibitory effect | metabolic stability [9]: metabolically stable

SMILES: CN(CC1(O)CCN(CCc2ccc(C#N)cc2)CC1)c1ccc(-c2nnn[nH]2)cc1 [Example 17, 4-{2-[4-hydroxy-4-({methyl[4-(1H-tetrazol-5-yl)phenyl]-amino}methyl)piperidin-1-yl]ethyl}benzonitrile]
melting point: 159.7 to 171.8 °C

SMILES: CN(CC1(O)CCN(CCc2ccc(C#N)cc2)CC1)c1ccc(C(=O)O)cc1.Cl [Example 29, 4-({1-[2-(4-cyanophenyl)ethyl]-4-hydroxypiperidin-4-ylmethyl}methylamino)benzoic acid monohydrochloride]
general appearances, body weight gains and food consumptions (rhesus male monkeys; [13]): no abnormalities | hematology, biochemistry, organ weight, and histopathology (rhesus male monkeys; [13]): No abnormal findings | survival (rhesus male monkeys; [13]): All the monkeys survived | ED30 value (30% inhibition dose) [1]: 1.2 mg/kg | metabolic stability [4]: metabolically stable | general appearances, body weight gains and food consumptions [3, 14]: no abnormalities | hematology, biochemistry, organ weight, and histopathology [3, 14]: No abnormal findings | survival ([3]; oral 400 mg/Kg/day once daily for 14 days, until 24 hours after final administration): All the rats survived | Mean threshold (g) Injured foot (left) ([2]; dose 1 mg/kg oral): 5.22 g | Mean threshold (g) Normal foot (right) ([2]; dose 1 mg/kg oral): 14.12 g | Mean threshold (g) Injured foot (left) ([2]; dose 3 mg/kg oral): 7.09 g | Mean threshold (g) Normal foot (right) ([2]; dose 3 mg/kg oral): 14.49 g | Mean threshold (g) Injured foot (left) ([2]; dose 10 mg/kg oral): 8.61 g | Mean threshold (g) Normal foot (right) ([2]; dose 10 mg/kg oral): 15.49 g | metabolic stability [5]: metabolically stable | effect in electrocardiogram (rhesus male monkey): no effect | bioavailability [6]: very good bioavailability | maximum plasma concentration (Cmax) and area under the plasma concentration-time curve (AUC) versus dose [6]: increased almostly in proportion to the doses | metabolic stability [7]: metabolically stable | inhibitory effect on human-drug metabolizing enzymes [8]: no serious inhibitory effect | metabolic stability [9]: metabolically stable
